Test results from patent publication US20100184770A1, “COMPOUNDS” (Glaxo Group Limited, priority 2006, published 2010).

What was measured:
human H1 receptor [1] = target: T1, human H1 receptor (Homo sapiens, UniProt P35367); test: Histamine H1 functional antagonist assay: determination of functional pKi values (FLIPR); type: cell-based; details: CHO cells expressing human H1 receptor, histamine at EC80, FLIPR, read-out: average pKi (pKb) at H1 (converted)
T1 construct: expressed in transfected cells
Method: (§1) 1. Generation of Histamine H1 Cell Line The human H1 receptor is cloned using known procedures described in the literature [Biochem. Biophys. Res. Commun., 201(2):894 (1994)]. Chinese hamster ovary (CHO) cells stably expressing the human H1 receptor are generated according to known procedures described in the literature [Br. J. Pharmacol., 117(6):1071 (1996)].
The histamine H1 cell line is seeded into non-coated black-walled clear bottom 384-well tissue culture plates in alpha minimum essential medium (Gibco/Invitrogen, cat no. 22561-021), supplemented with 10% dialysed foetal calf serum (Gibco/Invitrogen cat no. 12480-021) and 2 mM L-glutamine (Gibco/Invitrogen cat no 25030-024) and is maintained overnight at 5% CO2, 37° C.
Excess medium is removed from each well to leave 10 μl. 30 μl loading dye (250 μM Brilliant Black, 2 μM Fluo-4 diluted in Tyrodes buffer+probenecid (145 mM NaCl, 2.5 mM KCl, 10 mM HEPES, 10 mM D-glucose, 1.2 mM MgCl2, 1.5 mM CaCl2, 2.5 mM probenecid, pH adjusted to 7.40 with NaOH 1.0 M)) is added to each well and the plates are incubated for 60 min at 5% CO2, 37° C.
10 μl of test compound, diluted to the required concentration in Tyrodes buffer+probenecid (or 10 μl Tyrodes buffer+probenecid as a control) is added to each well and the plate is incubated for 30 min at 37° C., 5% CO2. The plates are then placed into a FLIPR™ (Molecular. Devices, UK) to monitor cell fluorescence (λex=488 nm, λEM=540 nm) in the manner described in Sullivan et al., (In: Lambert DG (ed.), Calcium Signaling Protocols, New Jersey: Humana Press, 1999, 125-136) before and after the addition of […] at a concentration that results in the final assay concentration of histamine being EC80.
Functional antagonism is indicated by a suppression of histamine induced increase in fluorescence, as measured by the FLIPR™ system (Molecular Devices). By means of concentration effect curves, functional affinities are determined using standard pharmacological mathematical analysis.

human H1 receptor [2] = target: T1, human H1 receptor; test: Histamine H1 functional antagonist assay: determination of antagonist duration (washout, FLIPR); type: cell-based; details: at one or more time points after washout
Method: as §1
To determine the antagonist duration, cells are cultured overnight in non-coated black-walled clear bottom 96-well tissue culture plates, are washed with PBS and are incubated with a concentration of antagonist chosen to give an approximate DR in the range 30-300. Following the 30 min antagonist incubation period, the cells are washed two or three times with 200 μl of PBS and then 100 μl Tyrodes buffer is added to each well to initiate antagonist dissociation. Following incubation for predetermined times, typically 30-270 min at 37° C., the cells are then washed again with 200 μl PBS and are incubated with 100 Tyrodes buffer containing Brilliant Black, probenecid and Fluo-4 for 45 min at 37° C., as described above. After this period, the cells are challenged with histamine in the FLIPR™ as described above. The dose ratio at each time point is used to determine the fractional H1 receptor occupancy by the following equation: fractional receptor occupancy=(DR-1)/DR. The decrease in receptor occupancy over time approximates to a straight line and is analysed by linear regression. The slope of this straight line fit is used as an index of the dissociation rate of the antagonist. The dose ratios for antagonist treated cells and for antagonist treated and washed cells at each time point are used to calculate a relative dose ratio (rel DR) which is also used as an index of antagonist duration. Antagonists with long duration of action produce rel DR values close to 1, and antagonists with short duration of action produce rel DR values that approaches the dose ratio value obtained for antagonist treatment alone.

T1 sequence (P35367 whole entry): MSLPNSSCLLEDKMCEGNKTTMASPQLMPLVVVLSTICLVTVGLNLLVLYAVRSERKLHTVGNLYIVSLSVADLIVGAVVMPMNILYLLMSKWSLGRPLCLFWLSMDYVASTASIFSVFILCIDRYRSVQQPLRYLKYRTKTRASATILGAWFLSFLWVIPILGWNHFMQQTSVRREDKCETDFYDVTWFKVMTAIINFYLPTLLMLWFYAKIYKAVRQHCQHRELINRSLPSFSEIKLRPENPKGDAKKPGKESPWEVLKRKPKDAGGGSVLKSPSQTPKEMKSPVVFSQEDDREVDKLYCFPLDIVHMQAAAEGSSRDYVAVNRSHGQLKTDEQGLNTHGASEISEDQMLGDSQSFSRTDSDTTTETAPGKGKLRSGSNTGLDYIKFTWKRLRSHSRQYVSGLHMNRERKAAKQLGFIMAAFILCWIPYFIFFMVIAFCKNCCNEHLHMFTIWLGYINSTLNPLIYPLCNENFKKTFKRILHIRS

In the case of Cl.O=C(CC(F)(F)F)NCCN1CCC[C@@H]1Cn1nc(Cc2ccc(Cl)cc2)c2ccccc2c1=O [Example 36a, N-[2-((2R)-2-{[4-[(4-Chlorophenyl)methyl]-1-oxo-2(1H)-phthalazinyl]methyl}-1-pyrrolidinyl)ethyl]-3,3,3-trifluoropropanamide, hydrochloride], the Ki (human H1 receptor [1]) is reported as less than 31.6 nM and the “duration of action compared with azelastine in the histamine H1 functional antagonist assay” value (human H1 receptor [2]) is reported as “longer duration of action than azelastine”.

For COCCC(=O)NCCN1CCC[C@@H]1Cn1nc(Cc2ccc(Cl)cc2)c2ccccc2c1=O.O=CO [Example 35, N-[2-((2R)-2-{[4-[(4-Chlorophenyl)methyl]-1-oxo-2(1H)-phthalazinyl]methyl}-1-pyrrolidinyl)ethyl]-3-(methyloxy)propanamide, formate salt], the Ki (human H1 receptor [1]) was less than 316 nM and the “duration of action compared with azelastine in the histamine H1 functional antagonist assay” value (human H1 receptor [2]) was “longer duration of action than azelastine”.
